Laboratory results taken from PMC10222839, “Development of Novel Small-Molecule Activators of Pyruvate Kinase Muscle Isozyme 2, PKM2, to Reduce Photoreceptor Apoptosis” (Pharmaceuticals, 2023).

Key:
human recombinant PKM2 = molecular target: T1, human recombinant PKM2 (Homo sapiens, UniProt P14618); experiment: Pyruvate kinase enzyme-coupled (LDH/NADH) assay with recombinant PKM2; assay type: biochemical
T1 construct: purchased Sigma SAE0021
Procedure: Recombinant Enzyme. An enzyme-coupled assay that measures the depletion of NADH via absorbance at 340 nm and uses lactate dehydrogenase (LDH) was employed to determine the activity of pyruvate kinase (PK). To determine the AC50 (concentration of activator necessary to achieve half-maximal activation) of the different small molecules with PKM2, assays were conducted in a 96-well format using 200 μL/well assay volume with 10 nM human recombinant PKM2 (Sigma, St. Louis, MO, USA, Cat No. SAE0021) or PKM1 (Sigma, […], Cat No. SRP0415), differing concentrations of activator, 0.5 mM PEP, 1 mM ADP, 0.2 mM NADH, and 8 U of LDH in a buffer of 50 mM Tris-HCl (pH 7.4), 100 mM KCl, and 5 mM MgCl2 as previously described. A SPECTROstar Omega plate reader (BMG LABTECH Inc., Cary, NC, USA) monitored absorbance at 340 nm. The MARS software suite was utilized to determine initial velocities. Data were normalized to DMSO (dimethyl sulfoxide)-treated enzyme activity, as previously described.

[1] = molecular target: T2, pyruvate kinase (PK) activity in 661W cells (Mus musculus, UniProt P52480); experiment: PK activity in 661W cell lysates after 2 h incubation with activator; assay type: cell-based
T2 construct: endogenous in cells; host or cells: 661W photoreceptor-like cells
Procedure: The potency and efficacy of each compound, 1 through 5, was assessed with recombinant human PKM2 using an enzyme-coupled assay that uses lactate dehydrogenase and measures the reduction in NADH via absorbance at 340 nm. […] To assess the ability of this pyridazinoindolone series of compounds to cross cellular membranes and increase PK activity, we utilized 661W cells, which are immortalized photoreceptor-like cells that express cone markers.
Cell culture. Next, 661W cells were incubated with either DMSO or different concentrations of small-molecule PKM2 activator for 2 h, lysed and homogenized in RIPA Lysis and Extraction Buffer (Thermo Fisher, Waltham, MA, USA, Cat No. 89900) with protease inhibitors (Complete-Mini, Roche Diagnostics, Indianapolis, IN, USA), and centrifuged at 10,000 rpm for 10 min to remove cellular debris. The supernatant (4–8 μL) was then used to assess the pyruvate kinase activity as described above. The total protein content was determined using the Pierce BCA protein assay kit (Thermo Fisher, Waltham, MA, USA, Cat No. 23225) with the Pierce™ Bovine Serum Albumin Standard Pre-Diluted Set (Thermo Fisher, Waltham, MA, USA, Cat No. 23208) and used to normalize activity as described previously.

[2] = molecular target: T3, pyruvate kinase (PK) activity in rat retina (Rattus norvegicus, UniProt P11980); experiment: PK activity in rat retina after intravitreal injection; assay type: in vivo; conditions: increasing concentrations, intravitreal injection in rats, retina 4 h
T3 construct: the retina from each rat eye was dissected from the RPE-choroid, homogenized, and lysed; from tissue; host or cells: retina of adult Brown-Norway rats
Procedure: The intravitreal injection of medications has revolutionized how numerous retinal diseases are treated and are ever-increasing in ophthalmic clinical practice. Therefore, to assess the ability of these small molecules to activate PK in vivo in the rat retina, we utilized this well-accepted drug delivery method. Two microliters of each respective compound at 850 μM or DMSO were intravitreally injected into rat eyes. The vitreous volume of the rat eye was assumed to be 15 μL, giving a final intravitreal concentration of approximately 100 μM for each compound after injection. Retinas were harvested four hours after injection, lysed, and assayed for PK activity as previously described. The eyes treated with DMSO served as the control upon which PK activation was based.
Two microliters of each respective compound at 8.5 μM (final vitreous concentration of 1 μM) or DMSO was intravitreally injected into rat eyes, and the PK activity was assessed four hours later.
Animals. Intravitreal injections of various small-molecule PKM2 activators or vehicle (DMSO) were performed in Brown-Norway adult rats. The rats were anesthetized with ketamine (90 mg/mL) and xylazine (10 mg/mL) and their pupils dilated with topical phenylephrine (2.5%) and tropicamide (1%) as described previously. A sclerotomy was created with a 25-gauge microvitreoretinal blade (Walcott Rx Products, Ocean View, NJ, USA) just posterior to the limbus. A blunt 35-gauge cannula was inserted through this sclerotomy into the vitreous cavity to deliver 2 μL of different concentrations of small-molecule activator or DMSO. This injection volume produces minimal reflux with adequate reproducibility. Fifteen microliters of vitreous volume was assumed in rats to calculate the intravitreal concentrations of the compound after injection. As we have previously described, left eyes were treated with small-molecular activator, while right eyes were treated with DMSO, which served as the control upon which pyruvate kinase activation was based. Four hours later, the retina from each rat eye was dissected from the RPE-choroid, homogenized, and lysed in RIPA Lysis and Extraction Buffer with protease inhibitors. The pyruvate kinase (PK) activity assay, as described above, was performed using 4 to 8 microliters of rat retinal lysate, similar to what we and others have previously described. Analogous to the cell culture assays, the total protein of the lysate was used to normalize pyruvate kinase activity.

T3 sequence (P11980 1-531 isoform P11980-2): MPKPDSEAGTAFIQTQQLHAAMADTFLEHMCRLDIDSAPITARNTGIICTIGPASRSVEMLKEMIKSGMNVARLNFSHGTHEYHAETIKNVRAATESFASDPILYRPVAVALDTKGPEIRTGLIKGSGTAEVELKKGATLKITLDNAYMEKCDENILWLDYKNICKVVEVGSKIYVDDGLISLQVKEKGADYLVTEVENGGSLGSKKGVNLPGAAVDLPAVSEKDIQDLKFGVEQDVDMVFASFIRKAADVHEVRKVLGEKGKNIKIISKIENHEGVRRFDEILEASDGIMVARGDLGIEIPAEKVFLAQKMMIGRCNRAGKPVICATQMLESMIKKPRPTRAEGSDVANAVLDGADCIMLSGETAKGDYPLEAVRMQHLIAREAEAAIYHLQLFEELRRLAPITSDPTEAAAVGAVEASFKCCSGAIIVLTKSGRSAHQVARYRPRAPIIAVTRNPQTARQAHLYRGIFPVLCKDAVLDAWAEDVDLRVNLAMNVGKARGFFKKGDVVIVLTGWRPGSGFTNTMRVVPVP
T1 sequence (P14618 whole entry): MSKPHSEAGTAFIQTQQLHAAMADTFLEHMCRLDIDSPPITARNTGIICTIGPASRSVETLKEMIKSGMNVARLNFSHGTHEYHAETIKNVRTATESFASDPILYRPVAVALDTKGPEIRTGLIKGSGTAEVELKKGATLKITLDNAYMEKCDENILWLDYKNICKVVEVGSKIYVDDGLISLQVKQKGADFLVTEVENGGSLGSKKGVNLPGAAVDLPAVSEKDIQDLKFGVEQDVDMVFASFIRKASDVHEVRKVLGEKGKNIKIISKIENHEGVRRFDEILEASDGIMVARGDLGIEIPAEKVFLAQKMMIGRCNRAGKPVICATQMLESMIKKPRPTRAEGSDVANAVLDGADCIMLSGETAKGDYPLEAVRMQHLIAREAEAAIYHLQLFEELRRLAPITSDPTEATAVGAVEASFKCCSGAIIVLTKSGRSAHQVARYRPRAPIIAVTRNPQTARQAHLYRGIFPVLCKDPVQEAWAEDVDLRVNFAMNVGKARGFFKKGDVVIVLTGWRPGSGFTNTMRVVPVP
T2 sequence (P52480 whole entry): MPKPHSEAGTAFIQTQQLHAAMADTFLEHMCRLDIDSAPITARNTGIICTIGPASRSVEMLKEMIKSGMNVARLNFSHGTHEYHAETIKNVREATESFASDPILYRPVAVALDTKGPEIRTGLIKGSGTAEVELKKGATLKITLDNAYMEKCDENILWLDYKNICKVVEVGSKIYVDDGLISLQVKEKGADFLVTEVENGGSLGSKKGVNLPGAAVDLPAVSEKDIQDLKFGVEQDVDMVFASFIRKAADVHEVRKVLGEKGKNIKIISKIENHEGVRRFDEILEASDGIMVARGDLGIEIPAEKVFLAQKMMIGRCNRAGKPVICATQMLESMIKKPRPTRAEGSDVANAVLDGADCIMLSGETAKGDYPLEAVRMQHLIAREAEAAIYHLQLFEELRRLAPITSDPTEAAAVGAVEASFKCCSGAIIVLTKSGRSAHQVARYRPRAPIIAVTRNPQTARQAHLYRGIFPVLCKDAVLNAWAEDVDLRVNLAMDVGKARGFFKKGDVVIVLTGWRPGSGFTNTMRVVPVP

- AC50 (human recombinant PKM2; recombinant human PKM2, n = 3, best-fit value ± std. error): 50 ± 12 nM
- Emax (human recombinant PKM2; recombinant human PKM2, n = 3, normalized to DMSO-treated enzyme, read-out: Recombinant PKM2 Max Activation): 292 ± 20%
- AC50 ([1]; n = 3): 120 ± 45 nM
- Emax ([1]; n = 3, read-out: 661W Cells Max Activation): 355 ± 26%
- AC50 ([2]; read-out: in vivo AC50): 299 ± 42 nM
- Emax ([2]; rat, normalized to DMSO, read-out: in vivo PK activity (maximum activation)): 183 ± 4%
SMILES: Cn1c2cc([S+](C)[O-])ccc2c2cnn(Cc3cccc(N)c3)c(=O)c21 (stereo not drawn) [Compound 2]
